Patent publication US5504106A, “Phenyl amidine alkanoic acids and lactones useful as platelet aggregation inhibitors” (G. D. Searle & Co., priority 1994, dated 1996)
“And” between values parts separate entries of the source, which are not always exact repeats. Equal entries are not always repeated. Structures can show the parent of a compound that is named as a salt.

Tested on: Dog PRP
Assay: In-Vitro Platelet Aggregation in PRP (ADP-induced)
Assay type: cell-based
Details: dog platelet-rich plasma, ADP-induced aggregation (50 μm final concentration), 37° C.; for IC50: 1 minute preincubation, linear regression of dose response curve; for Dog PRP % Inhibition: Test Concentration 1 × 10^-5
Method: Healthy male or female dogs were fasted for 8 hours prior to drawing blood; then 30 ml whole blood was collected using a butterfly needle and 30 cc plastic syringe with 3 ml of 0.129M buffered sodium citrate (3.8%). The syringe was rotated carefully as blood was drawn to mix the citrate. Platelet-rich plasma (PRP) was prepared by centrifugation at 975× g for 3.17 minutes at room temperature, allowing the centrifuge to coast to a stop without braking. The PRP was removed from the blood with a plastic pipette and placed in a plastic capped, 50 ml Corning conical sterile centrifuge tube which was held at room temperature. Platelet poor plasma (PPP) was prepared by centrifuging the remaining blood at 2000× g for 15 minutes at room temperature allowing the centrifuge to coast to a stop without braking. The PRP was adjusted with PPP to a count of 2-3×10^8 platelets per ml. 400 μl of the PRP preparation and 50 μl of the compound to be tested as prepared below or saline were preincubated for 1 minute at 37° C. in a BioData aggregometer (BioData, Horsham, Pa.). 50 μl of adenosine 5'diphosphate (ADP) (50 μm final concentration) was added to the cuvettes and the aggregation was monitored for 1 minute. The test compounds were prepared by the following procedure. The compound was dissolved in 100% ethanol at a concentration of 10^-2 M. It was vortexed for 30 seconds followed by the addition of 1.1 equivalents of 1N NaOH. This solution was mixed for 30 minutes at room temperature. After the 30 minutes of mixing, the compound solution was brought to a working concentration of 10^-3 M with double distilled water. All compounds are tested in duplicate. Results are calculated as follows:
Percent of control= (maximal OD minus initial OD of compound) divided by (maximal OD minus initial OD of control saline)!×100. The % inhibition=100-(percent of control).
The assay results for the representative compounds of the present invention are set forth in Table A. Also in Table A, two readings given in a single box indicate that two trials, rather than a single trial, were run for that particular compound in that particular assay.

[1] = Canis lupus familiaris, Platelet

Question: With N=C(N)c1ccc(NC(=O)CCC2CCCC(=O)O2)cc1 (centres unmarked) [N-4-(aminoiminomethyl)phenyl!tetrahydro-6-oxo-2H-pyran-2-propanamide, trifluoroacetate] as the compound, how does the IC50 [1] read?
Answer: The IC50 was 2.9 µM.

Question: For N=C(N)c1ccc(CCCC[C@@H]2C[C@@H](c3ccccc3)CC(=O)O2)cc1 (relative stereo) [(±)-trans-6-4-4-(Aminoimino)phenyl)butyl!tetrahydro-4-phenyl-2H-pyran-2-one, trifluoroacetate], which “Dog PRP % Inhibition” value is on record?
Answer: Its value is 7%.

Question: How did the “Dog PRP % Inhibition” value turn out when N=C(N)c1ccc(CCCC[C@@H]2C[C@@H](O)CC(=O)O2)cc1 (relative stereo) [(±)-trans-6-4-4-(Aminoiminomethyl)phenyl!butyl!tetrahydro-4-hydroxy-2H-pyran-2-one, trifluoroacetate] was run?
Answer: Its value is 36%.

Question: What does the source list for N=C(N)c1ccc(CCCC[C@@H]2C[C@H](c3cccnc3)CC(=O)O2)cc1 (relative stereo) [(±)-cis-6-4-4-(Aminoiminomethyl)phenyl)butyl!tetrahydro-4-(3-pyridinyl)-2H-pyran-2-one, ditrifluoroacetate]?
Answer: IC50 [1]: 0.16 µM; Dog PRP % Inhibition: 100%

Question: Which results are given for N=C(N)c1ccc(CCCC[C@@H]2C[C@H](CS(=O)(=O)c3ccccc3)CC(=O)O2)cc1 (relative stereo) [(±)-cis-6-4-4-(aminoiminomethyl)phenyl!butyl!tetrahydro-4-(phenylsulfonyl)methyl!-2H-pyran-2-one, trifluoroacetate]?
Answer: IC50 [1]: 2.6 µM; Dog PRP % Inhibition: 100%

Question: For N=C(N)c1ccc(CCCC[C@@H]2C[C@H](c3ccccc3)CC(=O)O2)cc1 (relative stereo) [(±)-cis-6-4-4-(Aminoiminomethyl)phenyl)butyl!tetrahydro-4-phenyl-2H-pyran-2-one, trifluoroacetate], which IC50 [1] is on record?
Answer: Its IC50 is 4.2 µM.

Question: What about the “Dog PRP % Inhibition” value of the same compound?
Answer: The value was 100%.

Question: Which “Dog PRP % Inhibition” value does the source give for N=C(N)c1ccc(CCCCC2CCCC(=O)O2)cc1 (racemic) [6-4-(4-(aminoiminomethyl)phenyl)butyl)tetrahydro-2H -pyran-2-one] here?
Answer: Its value is 29% and 38%.

Question: What does the source list for COC(=O)CC1CC(=O)OC(CCCCc2ccc(C(=N)N)cc2)C1 (racemic) [(±)-cis-methyl 2-4-4-(aminoiminomethyl)phenyl!butyl!tetrahydro-6-oxo-2H-pyran-4-acetate]?
Answer: IC50: 4 µM; Dog PRP % Inhibition: 100%

Question: Which IC50 [1] does the source give for C=C[C@@H]1CC(=O)O[C@H](CCCCc2ccc(C(=N)N)cc2)C1 (relative stereo) [(±)-cis-6-4-(4-(Aminoiminomethyl)phenyl)butyl!-4-ethenyl-tetrahydro-2H-pyran-2-one, trifluoroacetate] here?
Answer: The IC50 was 2.6 µM.

Question: And the “Dog PRP % Inhibition” value?
Answer: The value was 100%.

Question: Which results are given for N=C(N)c1ccc(CCCC[C@@H]2C[C@H](O)CC(=O)O2)cc1 (relative stereo) [(±)-cis-6-4-4-Aminoiminomethyl)phenyl!butyl!tetrahydro-4-hydroxy-2H-pyran-2-one, trifluoroacetate]?
Answer: IC50 [1]: 5.3 µM; IC50: 4.1 µM; Dog PRP % Inhibition: 89% and 96%

Question: For N=C(N)c1ccc(NC(=O)CC[C@@H]2C[C@H](O)CC(=O)O2)cc1 [N-4-(aminoiminomethyl)phenyl!3,4,5,6-tetrahydro-6-oxo-4S-hydroxy-2H-pyran-2R-propanamide, trifluoroacetate], which IC50 [1] is on record?
Answer: The IC50 was 0.35 µM.

Question: Which results are given for C[C@@H]1CC(=O)O[C@H](CCCCc2ccc(C(=N)N)cc2)C1 (relative stereo) [(±)-cis-6-4-4-(Aminoiminomethyl)phenyl)butyl!tetrahydro-4-methyl-2H-pyran-2-one, trifluoroacetate]?
Answer: IC50 [1]: 7.1 µM; Dog PRP % Inhibition: 74%
